Measured values reported in article PMC8535176, “Efficacy of epetraborole against Mycobacterium abscessus is increased with norvaline” (PLoS Pathogens, 2021).
In brackets after ≈: the same amount, converted by molar mass. Like-named read-outs stand apart in the source and are kept apart here.

Columns and labels:
Test in all cases: microbe, parasite or virus in culture
B. cereus = test system: B. cereus; design: Whole-cell growth inhibition, dose-response MIC (MIC90) by resazurin microtiter assay (REMA), fluorescence read-out; details: Bacillus cereus
C. glutamicum = test system: C. glutamicum; design: Whole-cell growth inhibition, dose-response MIC (MIC90) by resazurin microtiter assay (REMA), fluorescence read-out; details: Corynebacterium glutamicum
E. coli = test system: E. coli; design: Whole-cell growth inhibition, dose-response MIC (MIC90) by resazurin microtiter assay (REMA), fluorescence read-out; details: Escherichia coli
M. abscessus = test system: M. abscessus; design: Whole-cell growth inhibition, dose-response MIC (MIC90) by resazurin microtiter assay (REMA), fluorescence read-out; details: Mycobacteroides abscessus
M. avium hominissuis = test system: M. avium hominissuis; design: Whole-cell growth inhibition, dose-response MIC (MIC90) by resazurin microtiter assay (REMA), fluorescence read-out; details: Mycobacterium avium
M. avium intracellulaire = test system: M. avium intracellulaire; design: Whole-cell growth inhibition, dose-response MIC (MIC90) by resazurin microtiter assay (REMA), fluorescence read-out; details: Mycobacterium avium
M. tuberculosis Erdman = test system: T1, M. tuberculosis Erdman; design: Whole-cell growth inhibition, dose-response MIC (MIC90) by resazurin microtiter assay (REMA), fluorescence read-out; details: Mycobacterium tuberculosis, ERDMAN
T1 construct: Erdman

M. tuberculosis H37Rv = test system: T2, M. tuberculosis H37Rv; design: Whole-cell growth inhibition, dose-response MIC (MIC90) by resazurin microtiter assay (REMA), fluorescence read-out; details: Mycobacterium tuberculosis, H37RV
T2 construct: H37Rv

P. aeruginosa = test system: P. aeruginosa; design: Whole-cell growth inhibition, dose-response MIC (MIC90) by resazurin microtiter assay (REMA), fluorescence read-out; details: Pseudomonas aeruginosa
[1] = test system: T3, Mycobacteroides abscessus subsp. abscessus MT16_1065; design: species or system M. abscessus; Resazurin microtiter assay (REMA), fluorescence; MIC at 90% growth inhibition from Gompertz fit; details: 48 h, smooth morphotype
T3 construct: MT16_1065
Procedure: (§1) MIC values were determined using the resazurin microtiter assay (REMA). Cultures were grown to log phase (OD600 of 0.4–0.8) and diluted to OD600 of 0.005. Drugs were prepared in two-fold serial dilutions in 96-well plates with 90 μL of bacteria per well to a final volume of 100 μL. Plates were incubated at 37°C until drug-free wells were turbid (2 days for M. abscessus). Ten μL of resazurin (0.025% wt/vol) was added to each well. Once the drug-free wells turned pink (one doubling time), the fluorescence (ex/em 560nm/590nm) was measured using an Infinite F200 Tecan plate reader. Fluorescence intensities were converted to % viable cells relative to drug-free conditions and fit to the Gompertz equation using GraphPad Prism version 9. MIC values at 90% growth inhibition were determined from the nonlinear regression Gompertz equation. Next, we tested the in vitro activity of EPT against a panel of M. abscessus clinical isolates belonging to the three subspecies of the M. abscessus complex (M. abscessus, M. massiliense, and M. bolletii) with smooth and rough colony morphologies and with different drug susceptibility profiles to various antibiotics. There was no loss in activity against clinical isolates (range of 0.014–0.046 μg/mL) nor different morphologies (S2 Table). To determine the spectrum of activity of EPT, we curated a panel of various mycobacteria and representative gram-positive and gram-negative bacteria. […] Mycobacteria strains were grown in rolling [compound left out] culture at 37°C in Middlebrook 7H9 (Difco) supplemented with 10% albumin dextrose catalase (ADC), 0.2% glycerol, and 0.05% Tween 80 (7H9 complete) or on 7H10 agar plates supplemented with 10% oleic acid ADC and 0.5% glycerol at 37°C. When mentioned, the carbon source was modified from glycerol to acetate or the detergent Tween 80 was removed from the media. Bacillus cereus (clinical isolate), Corynebacterium glutamicum (ATCC 13032), Escherichia coli, and Pseudomonas aeruginosa PAO1 were grown in LB broth. HepG2 cells (ATCC HB-8065) were grown in Dulbecco’s modified Eagle’s medium (DMEM) with phenol red (from Gibco) supplemented with 10% fetal bovine serum at 37°C with 5% CO2.

[2] = test system: T4, Mycobacteroides abscessus subsp. abscessus MT16_6490; design: species or system M. abscessus; Resazurin microtiter assay (REMA), fluorescence; MIC at 90% growth inhibition from Gompertz fit; details: 48 h, smooth morphotype
T4 construct: MT16_6490
Procedure: as §1

[3] = test system: T5, Mycobacteroides abscessus subsp. bolletii AV; design: species or system M. abscessus; Resazurin microtiter assay (REMA), fluorescence; MIC at 90% growth inhibition from Gompertz fit; details: 48 h, smooth morphotype
T5 construct: AV
Procedure: as §1

[4] = test system: T6, Mycobacteroides abscessus subsp. bolletii Paris 167; design: species or system M. abscessus; Resazurin microtiter assay (REMA), fluorescence; MIC at 90% growth inhibition from Gompertz fit; details: 48 h, rough morphotype
T6 construct: Paris 167
Procedure: as §1

[5] = test system: T7, Mycobacteroides abscessus subsp. massiliense MT15_1748; design: species or system M. abscessus; Resazurin microtiter assay (REMA), fluorescence; MIC at 90% growth inhibition from Gompertz fit; details: 48 h, rough morphotype
T7 construct: MT15_1748
Procedure: as §1

[6] = test system: T8, Mycobacteroides abscessus subsp. massiliense MT15_1749; design: species or system M. abscessus; Resazurin microtiter assay (REMA), fluorescence; MIC at 90% growth inhibition from Gompertz fit; details: 48 h, rough morphotype
T8 construct: MT15_1749
Procedure: as §1

[7] = test system: T9, Mycobacteroides abscessus subsp. abscessus ATCC 19977; design: species or system M. abscessus; Resazurin microtiter assay (REMA), fluorescence; MIC at 90% growth inhibition from Gompertz fit; details: ATCC19977, 48 h, rough morphotype
T9 construct: ATCC 19977
Procedure: as §1

## CO[C@@]1(NC(=O)Cc2cccs2)C(=O)N2C(C(=O)O)=C(COC(N)=O)CS[C@@H]21 [Cefoxitin]
B. cereus; read-out: MIC (µg/mL) / CFX
  MIC: > 98 µg/mL
C. glutamicum; read-out: MIC (µg/mL) / CFX
  MIC: 98 µg/mL (≈ 229 µM)
E. coli; read-out: MIC (µg/mL) / CFX
  MIC: 4 µg/mL (≈ 9.36 µM)
M. abscessus; read-out: MIC (µg/mL) / CFX
  MIC: 12 µg/mL (≈ 28.1 µM)
M. avium hominissuis; read-out: MIC (µg/mL) / CFX
  MIC: 4.7 µg/mL (≈ 11 µM)
M. avium intracellulaire; read-out: MIC (µg/mL) / CFX
  MIC: 0.42 µg/mL (≈ 0.983 µM)
M. tuberculosis Erdman; read-out: MIC (µg/mL) / CFX
  MIC: > 98 µg/mL
M. tuberculosis H37Rv; read-out: MIC (µg/mL) / CFX
  MIC: > 98 µg/mL
P. aeruginosa; read-out: MIC (µg/mL) / CFX
  MIC: > 98 µg/mL
[1]; read-out: MIC CFX
  MIC: 13 µg/mL (≈ 30.4 µM)
[2]; read-out: MIC CFX
  MIC: 13 µg/mL (≈ 30.4 µM)
[3]; read-out: MIC CFX
  MIC: 15 µg/mL (≈ 35.1 µM)
[4]; read-out: MIC CFX
  MIC: 16 µg/mL (≈ 37.4 µM)
[5]; read-out: MIC CFX
  MIC: 26 µg/mL (≈ 60.8 µM)
[6]; read-out: MIC CFX
  MIC: 16 µg/mL (≈ 37.4 µM)

## CC[C@H]1OC(=O)[C@H](C)[C@@H](O[C@H]2C[C@@](C)(OC)[C@@H](O)[C@H](C)O2)[C@H](C)[C@@H](O[C@@H]2O[C@H](C)C[C@H](N(C)C)[C@H]2O)[C@](C)(OC)C[C@@H](C)C(=O)[C@H](C)[C@@H](O)[C@]1(C)O [Clarithromycin]
B. cereus; read-out: MIC (µg/mL) / CLR
  MIC: > 8.2 µg/mL
C. glutamicum; read-out: MIC (µg/mL) / CLR
  MIC: > 8.2 µg/mL
E. coli; read-out: MIC (µg/mL) / CLR
  MIC: > 8.2 µg/mL
M. abscessus; read-out: MIC (µg/mL) / CLR
  MIC: 0.9 µg/mL (≈ 1.2 µM)
M. avium hominissuis; read-out: MIC (µg/mL) / CLR
  MIC: 0.18 µg/mL (≈ 0.241 µM)
M. avium intracellulaire; read-out: MIC (µg/mL) / CLR
  MIC: 0.014 µg/mL (≈ 0.0187 µM)
M. tuberculosis Erdman; read-out: MIC (µg/mL) / CLR
  MIC: > 1.3 µg/mL
M. tuberculosis H37Rv; read-out: MIC (µg/mL) / CLR
  MIC: > 1.3 µg/mL
P. aeruginosa; read-out: MIC (µg/mL) / CLR
  MIC: > 8.2 µg/mL
[7]; read-out: MIC CLR
  MIC: 0.65 µg/mL (≈ 0.869 µM)
[1]; read-out: MIC CLR
  MIC: 3.4 µg/mL (≈ 4.55 µM)
[2]; read-out: MIC CLR
  MIC: 2.9 µg/mL (≈ 3.88 µM)
[3]; read-out: MIC CLR
  MIC: 0.15 µg/mL (≈ 0.201 µM)
[4]; read-out: MIC CLR
  MIC: 2.8 µg/mL (≈ 3.74 µM)
[5]; read-out: MIC CLR
  MIC: 0.068 µg/mL (≈ 0.0909 µM)
[6]; read-out: MIC CLR
  MIC: 0.082 µg/mL (≈ 0.11 µM)

## CO[C@H]1/C=C/O[C@@]2(C)Oc3c(C)c(O)c4c(O)c(c(/C=N/N5CCN(C)CC5)c(O)c4c3C2=O)NC(=O)/C(C)=C\C=C\[C@H](C)[C@H](O)[C@@H](C)[C@@H](O)[C@@H](C)[C@H](OC(C)=O)[C@@H]1C [Rifampicin]
B. cereus; read-out: MIC (µg/mL) / RIF
  MIC: < 0.063 µg/mL
C. glutamicum; read-out: MIC (µg/mL) / RIF
  MIC: < 0.063 µg/mL
E. coli; read-out: MIC (µg/mL) / RIF
  MIC: 3.9 µg/mL (≈ 4.74 µM)
M. abscessus; read-out: MIC (µg/mL) / RIF
  MIC: 9.1 µg/mL (≈ 11.1 µM)
M. avium hominissuis; read-out: MIC (µg/mL) / RIF
  MIC: 0.063 µg/mL (≈ 0.0766 µM)
M. avium intracellulaire; read-out: MIC (µg/mL) / RIF
  MIC: 0.063 µg/mL (≈ 0.0766 µM)
M. tuberculosis Erdman; read-out: MIC (µg/mL) / RIF
  MIC: 0.0065 µg/mL (≈ 0.0079 µM)
M. tuberculosis H37Rv; read-out: MIC (µg/mL) / RIF
  MIC: 0.0063 µg/mL (≈ 0.00766 µM)
P. aeruginosa; read-out: MIC (µg/mL) / RIF
  MIC: 15 µg/mL (≈ 18.2 µM)
[7]; read-out: MIC RIF
  MIC: 1.8 µg/mL (≈ 2.19 µM)
[1]; read-out: MIC RIF
  MIC: > 24 µg/mL
[2]; read-out: MIC RIF
  MIC: > 24 µg/mL
[3]; read-out: MIC RIF
  MIC: > 24 µg/mL
[4]; read-out: MIC RIF
  MIC: 7.4 µg/mL (≈ 8.99 µM)
[6]; read-out: MIC RIF
  MIC: 6.7 µg/mL (≈ 8.14 µM)
